The values that follow come from patent US20040171019A1, “PIN1 peptidyl-prolyl isomerase polypeptides, their crystal structures, and use thereof for drug design” (Agouron Pharmaceuticals, Inc., priority 2002, published 2004).

The target of experiment [1] is T1, His-tagged construct of the K77Q/K82Q PPIase domain (Homo sapiens, UniProt Q13526, K77Q/K82Q).
T1 construct: made in house; host or cells: E. coli BL21(DE3)
As to the kind of experiment: Isothermal titration calorimetry. Type of experiment: binding. As for the experimental part:
The working volume of the ITC cell was 1.414 mL. Both solutions contained 25 mM MOPS pH 7.5, 0.5 mM TCEP and 2.0% DMSO (vol./vol.). The PPIase polypeptide solution was prepared by exhaustively dialyzing a stock protein solution against several changes of dialysis buffer (25 mM MOPS pH 7.5, 0.5 mM TCEP) at 4.0° C.
After dialysis the protein was centrifuged to remove any particulate matter. The protein concentration was then determined by absorbance using an extinction coefficient that had been calculated based on the tryptophan and tyrosine content of the protein. The dialysed protein was then diluted with the dialysate and 2.0% (volume to volume) DMSO was added to yield a final concentration of 200 μM protein. […] An aliquot of the stock solution was diluted in DMSO and then an appropriate volume of dialysate was added. The final DMSO concentration was 2.0% (volume to volume) and the final compound concentration was 10 μM.
Appropriate control titrations (buffer into buffer, buffer into compound, and protein into buffer) were performed to determine the heats of dilution. Prior to fitting for the binding parameters, the observed heats of binding were corrected for heat of dilution of the protein. […] The data were fit using the ORIGIN® software package (MicroCal) provided with the ITC (FIG. 6). […] The One Set of Sites model with ligand in the cell was selected.
(In general: ITC needs no label: the signal is the heat of the interaction.)

A further experiment has as its target T2, PPIase domain of PIN1 (Homo sapiens, UniProt Q13526).
T2 construct: made in house; host or cells: E. coli BL21(DE3)
In words: Fluorescence polarization competition assay with fluorescein-tagged Pintide. It counts as binding. Particulars: free Pintide as inhibitor control. From the text: This assay is based on fluorescence polarization. In fluorescence polarization detection, monochromatic light passes through a polarized filter and excites molecules in the sample well. Only those molecules that are oriented properly in the polarized plane absorb light, become excited, and subsequently emit light. The emitted light is detected after passing through polarizing filters that are oriented parallel and perpendicular to the plane of excitation. Since small molecules rotate more quickly than large molecules (e.g. in the form of a bound complex), the parallel (S) and perpendicular (P) measurements are closer and the difference is lower. Fluorescence polarization is measured in mP (milliP) which is defined using the following equation: […]
For the PIN1 assay, library compounds compete with fluorescein-tagged Pintide to bind the PPIase domain of PIN1. After a short incubation, samples are assayed using fluorescence polarization. The excitation and emission of fluorescein occur at 485 nm and 530 nm, repectively. […]
Experiments were performed in either 96-well plates or 384-well black flat bottom polystyrene non-binding surface (NBS) plates (Costar). […] Excitation was measured at 485 nm and emission was measured at 530 nm. Readings were taken in a Florescence Polarization reader (Molecular Devices Analyst). […]
A general note: In fluorescence polarisation assays a small probe gives low polarisation when free and higher when bound to something large.

Experiment [2] has as its system Suc-AEPF-pNA peptide substrate. In words: Peptidyl-prolyl isomerase activity of PIN1 polypeptides without inhibitor. Type of experiment: biochemical. Particulars: 0.033 nM enzyme, 100 μM Suc-AEPF-pNA. From the text: PIN1 is a phosphorylation dependent peptidyl-prolyl isomerase. Peptidyl-prolyl ismomerase activity for the peptides of the invention can be measured using a spectrophotometric assay based on the coupled chymotrypsin catalyzed, cis-trans conformation dependent cleavage of a para-nitroanaline-containing peptide substrate. This rotamase assay is described by Kofron et al. (Biochemistry 30, […] (1991)) and its application to PIN1 isomerase activity is described by Yaffe et al. (Science 278, 1957-1960 (1997)). Cleavage of the isomerized peptide releases para-nitroanaline, which can be monitored by an increase in absorbance at 390 nm. The PIN1 peptide substrate, succinyl-alanine-[…]-proline-phenylalanine-paranitroaniline (Suc-AEPF-pNA) (Bachem California, Inc., Torrence, Calif.) is kept in a predominantly cis conformation with an anhydrous TFE (trifluorethanol)/LiCl (lithium chloride) solvent mixture. […]
Peptidyl-prolyl isomerase reactions were carried out in 25 mM MOPS [3-(N-Morpholino)propanesufonic acid], pH 7.5, 0.5 mM TCEP [Tris(2-carboxyethyl)phosphine hydrochloride], 2% DMSO, 5 μl of a 25 mg/ml solution of Subtilisin Carlsberg Protease (Sigma), […], and 100 μM Suc-AEPF-pNA peptide substrate. […] The absorbance at 390 nm was monitored continuously until all substrate had been converted to the cleaved product. […]

A further experiment deals with human PIN1 (Homo sapiens, UniProt Q13526). The settings on record: Hennig et al., Biochemistry 37: 5953-5960 (1998); cited from earlier work.
In another experiment the target is T3, mutant PPIase K77Q/K82Q (Homo sapiens, UniProt Q13526, K77Q/K82Q).
T3 construct: 6xHis (N, cleaved yes); made in house; host or cells: E. coli BL21(DE3)
As to the kind of experiment: PIN1 peptidyl-prolyl isomerase assay (protease-coupled, Suc-AEPF-pNA). Type of experiment: biochemical. Particulars: 15° C., read-out: Km for this substrate. As for the experimental part:
PIN1 is a phosphorylation dependent peptidyl-prolyl isomerase. […] Cleavage of the isomerized peptide releases para-nitroanaline, which can be monitored by an increase in absorbance at 390 nm. […] To minimize the spontaneous isomerization of the peptide substrate, reactions are performed at 15° C.
The rate constant k is linearly proportional to the concentration of active enzyme present in the assay mixture once the rate constant for the spontaneous isomerization is subtracted.

Setting [3] is: ITC, 15.0° C., duplicate, ± standard deviation.
[4] abbreviates: best fit of corrected binding data, FIG. 6.

pIC50: −log10 of the molar value. Numbered stars: 1 amine (or outer) side, 2 acyl side, 3 side chain; on linkers, the order of the positions; unused ones are H or OH. Square brackets hold non-standard residues; d marks the D form. Peptide text beside a SMILES is read from it. * marks the point of attachment. pS = N[C@@H](COP(=O)(O)O)C(=O)O; pNA = O=[N+]([O-])c1ccc(N*)cc1; Suc = O=C(CCC(=O)[*:2])[*:1]

Consider `O=C(N[C@@H](COP(=O)(O)O)Cc1ccccc1)c1cc2ccccc2s1` [Compound I, Phosphoric acid mono-{(R)-2-[(1-benzo[b]thiophen-2-yl-methanoyl)-amino]-3-phenyl-propyl} ester], for which, in experiment [1] (setting [3]), the enthalpy of binding is −7.3 (±0.1) kcal/mol and the stoichiometry is 0.854 (±0.003). In experiment [1] (setting [4]), the C value came to 142 and the ka is 1.42e+07 M⁻¹. The pIC50 is the negative decadic logarithm of the IC50, by convention in mol/L. A lower pIC50 goes with a large IC50. Consider `CC(C)C[C@H](NC(=O)[C@H](Cc1ccccc1)NC(=O)[C@@H]1CCCN1C(=O)[C@H](COP(=O)(O)O)NC(=O)[C@H](Cc1ccc(O)cc1)NC(=O)[C@H](Cc1ccccc1)NC(=O)[C@@H](N)Cc1c[nH]c2ccccc12)C(=O)N[C@@H](CCC(=O)O)C(=O)O` [Pintide] (H-WFY[pS]PFLE-OH), for which the negative-log IC50 (pIC50) at PPIase domain of PIN1 is 5.00 to 5.15. As for “wild-type PIN1: wild type human PIN1, a phosphorylation dependent peptidyl-prolyl isomerase”, in experiment [2], the rate amounted to 0.2.

For the molecule `O=C1C=CC(=O)c2c(O)cccc21` [juglone, 5-hydroxy-1,4-naphthoquinone], the “inhibition of parvulins, including human PIN1” value at human PIN1 is “selectively inhibits”. As usually defined, the Km is the concentration of substrate that gives half-maximal velocity. For the molecule `C[C@H](NC(=O)CCC(=O)O)C(=O)N[C@@H](CCC(=O)O)C(=O)N1CCC[C@H]1C(=O)N[C@@H](Cc1ccccc1)C(=O)Nc1ccc([N+](=O)[O-])cc1` [Suc-AEPF-pNA] (Suc-AEPF-pNA), the Km at mutant PPIase K77Q/K82Q is over 100 µM.
